Results as given in US7303770B2, “Cancer chemoprotective food products” (Johns Hopkins School of Medicine, priority 1997, dated 2007).

Key:
[1] = system: QR activity in Hepa 1c1c7 murine hepatoma cells; conditions: reported values, cited from earlier work
[2] = system: QR activity in Hepa 1c1c7 murine hepatoma cells; assay: Inducer activity: QR induction in Hepa 1c1c7 microtiter bioassay, extracts untreated with myrosinase; type: cell-based; conditions: without myrosinase hydrolysis
Procedure: Inducer activity or Phase 2 enzyme-inducing activity is a measure of the ability of a compound(s) to induce Phase 2 enzyme activity. In the present invention, inducer activity is measured by means of the murine hepatoma cell bioassay of QR activity in vitro. Inducer activity is defined herein as QR inducing activity in Hepa 1c1c7 cells (murine hepatoma cells) incubated with extracts of sprouts, seeds or other plant parts untreated with myrosinase. Inducer activity is measured in Hepa 1c1c7 murine hepatoma cells grown in 96-well microtiter plates. Typically 10,000 Hepa 1c1c7 cells are introduced into each well. Hepatoma cells are grown for 24 hours and a plant extract containing microgram quantities of fresh plant tissue is serially diluted across the microtiter plates into fresh culture medium containing 0.15 ml αMEM culture medium amended with 10% Fetal Calf Serum (FCS) and streptomycin and penicillin. The cells are further incubated for 48 hours. QR activity (based on the formation of the blue-brown reduced tetrazolium dye) is measured with an optical microtiter plate scanner in cell lysates prepared in one plate, and related to its protein concentration. Quantitative information on specific activity of QR is obtained by computer analysis of the absorbances. One unit of inducer activity is the amount that when added to a single microtiter well doubles the QR activity. […]

[3] = system: QR activity in Hepa 1c1c7 murine hepatoma cells; assay: Inducer potential: QR induction in Hepa 1c1c7 microtiter bioassay, myrosinase-treated extracts; type: cell-based; conditions: ammonium salts of isolated peaks
Procedure: Inducer potential or Phase 2 enzyme-inducing potential is a measure of the combined amounts of inducer activity in plant tissue provided by isothiocyanates, plus glucosinolates that can be converted by myrosinase to isothiocyanates. Glucosinolates are not themselves inducers of mammalian Phase 2 enzymes, whereas isothiocyanates are inducers. Inducer potential therefore is defined herein as QR activity in murine 1c1c7 hepatoma cells incubated with myrosinase-treated extracts of the sprouts, seeds or other plant parts. In the present invention therefore inducer potential is measured by means of the murine hepatoma cell bioassay of QR activity in vitro as described above. Inducer potential is measured in Hepa 1c1c7 murine hepatoma cells grown in 96-well microtiter plates. […] Hepatoma cells are grown for 24 hours and a plant extract containing microgram quantities of fresh plant tissue is serially diluted across the microtiter plates into fresh culture medium containing 0.15 ml αMEM culture medium amended with 10% Fetal Calf Serum (FCS) and streptomycin and penicillin. […] QR activity (based on the formation of the blue-brown reduced tetrazolium dye) is measured with an optical microtiter plate scanner in cell lysates prepared in one plate, and related to its protein concentration. Quantitative information on specific activity of QR is obtained by computer analysis of absorbances. […]

Row | Structure (SMILES) | Inducer potency corresponding to reported CD value ([1]; Hepa 1c1c7) | CD value (concentration required to double QR specific activity) ([1]; Hepa 1c1c7 murine hepatoma cells) [µM] | Inducer activity of isolated PIC peaks [2] | Inducer potency after myrosinase hydrolysis [3]
1 | C[S+]([O-])CCCCN=C=S (stereo not drawn) [sulforaphane] | 33,333 units/μmol | 0.2 | – | –
2 | C[S+]([O-])CCCC/C(=N\OS(=O)(=O)O)S[C@@H]1O[C@H](CO)[C@@H](O)[C@H](O)[C@H]1O (single isomer, unassigned; peak a) [Peak A, 4-methylsulfinylbutyl glucosinolate] | – | – | no significant inducer activity | 36,100 units/μmol
3 | CSCCCCC(=NOS(=O)(=O)O)S[C@@H]1O[C@H](CO)[C@@H](O)[C@H](O)[C@H]1O (single isomer, unassigned; peak c) [Peak C, 4-methythiobutyl glucosinolate] | – | – | no significant inducer activity | 4,360 units/μmol
